What all share (type): cell-based, human
Assay [1] has as its system autologous CLL-cells. The assay is described as follows: 51Cr-release assay, CTL of CLL patient against autologous CLL-cells. The note with it: CTL from PBMNC of HLA-A*0201-positive CLL patient; FIG. 6. The procedure:
(§1) In the CTL-assays, tumor cells, peptide-pulsed cells of different cell lines and autologous DC were used as target cells. Peptide-pulsed cells were pulsed with 50 μg/ml peptide (SEQ ID No. 1 or SEQ ID No. 2) for 2 hours. All target cells were labeled with [^51Cr] sodium chromate in RP10 (RPMI 1640, supplemented with 10% heat inactivated calf serum and antibiotics) for 1 hour at 37° C. Subsequently, 10^4 cells/well were transferred to a 96-well round bottomed plate. Varying numbers of CTL were added to give a final volume of 200 μl and incubated for 4 hours at 37° C. At the end of the assays, supernatants (50 μl/well) were harvested and counted in a beta-plate counter. […] The spontaneous and maximal release were determined in the presence of either medium or 2% Triton X-100, respectively.
(§2) In a further experiment, CTL were generated from PBMNC of HLA-A*0201-positive patient with chronic lymphatic leukemia (CLL), which were specific for adipophilin-peptide with SEQ ID NO:2. The patient was in remission after treatment with fludarabine. Further, autologous CLL-cells and DC of this patient were used as ^51Cr-labeled targets in an assay, in which ^51Cr-release is mediated by the peptide-induced CTL.

Assay [2] has as its system autologous DC of CLL patient. The assay is described as follows: 51Cr-release assay, CTL of CLL patient against autologous peptide-pulsed DC. The note with it: adipophilin-peptide-induced CTL of CLL patient; FIG. 6. The procedure:
as §1, §2

In assay [3] the test system is non-malignant B-cells. As to the kind of experiment: 51Cr-release assay, CTL of CLL patient against non-malignant B-cells. The note with it: FIG. 6. The procedure: as §1, §2
Assay [4] relates to cell line K 562. The assay is described as follows: 51Cr-release assay, CTL of CLL patient against K 562. Conditions: FIG. 6. The procedure: as §1, §2

In the case of “SVASTITGV (listed as Homo sapiens) [SEQ ID No. 2, HLA-A*02 ligand, adipose differentiation-related protein 129-137]”, the “lysis of autologous CLL-cells by peptide-induced CTL” value in assay [1] is recorded as “efficiently lysed”. Further, the “lysis of autologous DC pulsed with the peptide” value in assay [2] was “efficiently lysed”. Further, the “lysis of non-malignant B-cells by peptide-induced CTL” value in assay [3] was “not lysed”. The “lysis of cell line K 562 by peptide-induced CTL” value in assay [4] is “not lysed”.

(Values after patent publication US8536304B2, “Tumour-associated peptides that bind to MHC molecules” (Immatics Biotechnologies GmbH, priority 2002, dated 2013).)
